This is an account of results in ChEMBL document CHEMBL3886365, “Substituted oxadiazole compounds” (2015).

Experiment [1] deals with Sphingosine 1-phosphate receptor 1 (Homo sapiens, UniProt P21453). The experiment can be described thus: (§1) GTPgammaS Binding Assay: Compounds were loaded in a 384 Falcon v-bottom plate (0.5 ul/well in a 11 point, 3-fold dilution). Membranes prepared from S1P1/CHO cells or EDG3-Ga15-bla HEK293T cells were added to the compound plate (40 ul/well, final protein 3 ug/well) with MULTIDROP. [35S]GTP (1250 Ci/mmol, Perkin Elmer) was diluted in assay buffer: 20 mM HEPES, pH7.5, 10 mM MgCl2, 150 mM NaCl, 1 mM EGTA, 1 mM DTT, 10 uM GDP, 0.1% fatty acid free BSA, and 10 ug/ml Saponin to 0.4 nM. 40 ul of the [35S] GTP solution was added to the compound plate with a final concentration of 0.2 nM. The reaction was kept at room temperature for 45 min. At the end of incubation, all the mixtures in the compound plate were transferred to Millipore 384-well FB filter plates via the VELOCITY11 Vprep liquid handler. The filter plate was washed with water 4 times by using the manifold Embla plate washer and dried at 60° C. for 45 min. MicroScint 20 scintillation fluid (30 ul) was added to each well. It counts as functional, cell membranes.
Sequence of Sphingosine 1-phosphate receptor 1 (P21453 whole entry): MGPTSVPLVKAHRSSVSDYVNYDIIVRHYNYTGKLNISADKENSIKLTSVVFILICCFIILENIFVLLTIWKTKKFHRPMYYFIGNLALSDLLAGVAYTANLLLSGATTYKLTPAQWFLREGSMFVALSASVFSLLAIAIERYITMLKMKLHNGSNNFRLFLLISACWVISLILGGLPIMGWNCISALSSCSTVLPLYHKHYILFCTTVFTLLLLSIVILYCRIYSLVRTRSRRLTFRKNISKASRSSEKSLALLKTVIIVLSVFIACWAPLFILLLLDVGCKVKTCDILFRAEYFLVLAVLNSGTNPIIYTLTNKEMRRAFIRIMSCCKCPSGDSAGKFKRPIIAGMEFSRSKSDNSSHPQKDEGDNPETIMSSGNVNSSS

Experiment [2] deals with Sphingosine 1-phosphate receptor 3 (Homo sapiens, UniProt Q99500). The description is as §1. Type of experiment: functional, cell membranes.
Sequence of Sphingosine 1-phosphate receptor 3 (Q99500 whole entry): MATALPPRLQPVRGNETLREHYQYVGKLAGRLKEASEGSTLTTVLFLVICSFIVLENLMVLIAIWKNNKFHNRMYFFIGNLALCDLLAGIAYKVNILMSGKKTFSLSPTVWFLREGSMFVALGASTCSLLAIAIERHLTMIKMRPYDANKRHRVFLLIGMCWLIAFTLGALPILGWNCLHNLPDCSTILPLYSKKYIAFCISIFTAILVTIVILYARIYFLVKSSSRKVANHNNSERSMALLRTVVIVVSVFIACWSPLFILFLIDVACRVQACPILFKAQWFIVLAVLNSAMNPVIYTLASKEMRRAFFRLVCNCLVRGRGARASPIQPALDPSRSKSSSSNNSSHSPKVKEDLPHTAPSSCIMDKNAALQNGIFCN

With `FC(F)(F)Oc1ccc(-c2noc(CCC3(c4ccccc4)CCCCC3)n2)cc1`, the EC50 is 5.7 µM in experiment [1] and over 62 µM in experiment [2].

The term EC50 denotes the midpoint of the concentration-response curve.
